Values quoted from earlier work, collected in patent US20220192993A1, “DOSAGE FORMS AND METHODS OF PREPARATION AND USE THEREOF” (Willow Bark Brands, Inc., priority 2019, published 2022).

Tested on: brain alpha wave activity
Conditions: reported effect, 'testing shows'

## CCNC(=O)CC[C@H](N)C(=O)O [L-Theanine]
  brain alpha wave activity: L-Theanine increases
